The text below walks through data of US5352667A, “Non-peptidic surrogates of the Arg-Gly-Asp sequence and pharmaceutical compositions comprising them” (priority 1991, dated 1994).

Experiment [1] concerns CD4^+ T cell adhesion to 120 kD fragment of FN. The experiment is described as follows: Inhibition of activated CD4+ T cell adhesion to 120 kD fragment of FN. The format is cell-based, human. Particulars: for % inhibition of adhesion of activated CD4^+ T cell to 120 kD fragment of FN / % Adhesion of activated CD4^+ T cell to 120 kD fragment of FN: 0.2 mM peptides and surrogates, mAb anti-CD29 1/200, anti-VLA5 1/400 diluted; for % inhibition of adhesion of activated CD4^+ T cell to 120 kD fragment of FN: * P<0.05; for % Adhesion of activated CD4^+ T cell to 120 kD fragment of FN: PMA activated, none 43 ± 4; for T cell adhesion to FN, in words: 0.2 mM, 120 kD fragment of FN. How it is done: (§1) To examine the adhesive properties of the T cells, 1 μg/50 μl/well of either fibronectin (FN) (Sigma), the 120 kD cell attachment fragment of FN (Telios Pharm. Inc. San Diego, CA), or laminin (LN) (Sigma), were added to 96-flat bottom microtiter-wells for 12 h. Unbound proteins were then washed away and remaining binding sites were blocked with 0.1% bovine serum albumin (BSA) added to the wells for 2 h and washed. CD4+T cells were purified from peripheral blood mononuclear leukocytes obtained from healthy human donors. The mononuclear cells were isolated using a Ficoll gradient, washed and incubated in RPMI supplemented with 10% fetal calf serum (FCS) and antibiotics in petri dishes at 37° C. humidified CO2 incubator. After 2 h, the non-adherent cells were isolated and applied on nylon-wool columns (1.5 h). CD4^+ T cells were then negatively selected by exposure of the cells to a cocktail of anti-CD8, CD19, and CD14 monoclonal antibodies (mAb) conjugated to magnetic-beads (Advanced Magnetics, MA). Unbound cells were recovered and their phenotype was examined. Purity of the CD4^+ T cells was always greater than 92% as determined by FACScan.
(§2) The purified CD4^+ T cells were radioactively labeled with ^51 [Cr](New England Nuclear) in RPMI +20% FCS for 2 h and washed. The cells were counted and seeded (0.2×10^5 cells) on the precoated microtiter wells in the presence or the absence of the various inhibitors. Coating was made either with FN, the 120 kD cell-attachment fragment of FN or with control adhesive protein laminin (LN). The inhibitors were various surrogates according to the invention, other test molecules or mAb. After 30 min incubation (in […] CO2 -- humidified incubator) the T cells were activated by 10 ng/ml phorbol myristate acetate (PMA) and the percent of T cells attached to the protein substrates was measured. Unbound cells were washed away after 20-30 min, the bound cells were lysed and their radioactivity was measured using radioactive counter. The amount of the radioactivity of the cell lysates represent the matrix-adherent cells and percent binding was calculated in comparison to the total radioactivity added to the wells. Activated T cell adhesion to control wells or to wells coated with BSA was always 2-5%; the level of adhesion of the non-activated T cells was always below 5%. Where indicated, 1/200 diluted mAb anti-CD29 (anti-β1 mAb Serotec, GB), or 1/400 diluted anti-VLA5 (the β1α5 FN-integrin receptor) mAb (Telios Pharm. Inc. San Diego), or 0.2 mM of RGD, GRGDSPK or GRGESP peptides (Sigma) were used. The tested non-peptidic surrogates, 0.2 mM in PBS, were used to pretreat the T cells for 15 min before seeding the cells *, P<0.05. The results shown in Tables 1A, 1B and 1C represent data obtained from several experiments that produced essentially similar results.
(§3) The four RGD surrogates, AC-4.

The subject of experiment [2] is CD4^+ T cell adhesion to LN. The experiment is described as follows: Inhibition of activated CD4+ T cell adhesion to laminin (LN). Particulars: for % inhibition of adhesion of activated CD4^+ T cell to LN / % Adhesion of activated CD4^+ T cell to LN: 0.2 mM peptides and surrogates, mAb anti-CD29 1/200, anti-VLA5 1/400 diluted; for % inhibition of adhesion of activated CD4^+ T cell to LN: * P<0.05; for % Adhesion of activated CD4^+ T cell to LN: none 55 ± 5. The format is cell-based, human. Here is the method: as §1, §2, §3

In experiment [3] the test system is B16-melanoma cells adhesion to FN. The experiment is described as follows: Inhibition of B16-melanoma cell adhesion to FN. The format is cell-based, murine. Conditions: surrogates 0.2 mM; for % inhibition of adhesion of B16-melanoma cells to FN: * P<0.05; for % Adhesion of B16-melanoma cells to FN: none 75 ± 5. Here is the method:
(§4) To examine the adhesive properties of tumor cells, 1 μg/50μ/well of FN or 0.3μg/well of VN were added to 96-flat bottom microtiter wells for 12 h. Unbound proteins were then washed away and remaining binding sites were blocked with 0.1% BSA added to the wells for 2 h and washed. Murine B16-melanoma F-1 cells were metabolically labeled with ^35 S-methionine (New England Nuclear) for 2 h, chased for 18 h and extensively washed. The cell suspension was resuspened in RPMI supplemented with 1% BSA containing 1 mM CaCl2 and MgCl2. Tumor cell adhesion to control wells or to wells coated with BSA was always 2-5%. The tested non-peptidic surrogates, 0.2 mM in PBS, were used to pretreat the tumor cells for 15 min before seeding the cells *, P<0.05.
(§5) In a first series of experiments, the potential inhibitory action of the RGD surrogate SF-6,5 on adhesion of B16 melanoma cells to FN or VN was compared to that of the RGE surrogate SF-6,6 and to that of RGD, GRGDSPK and GRGESP peptides.
In a further set of experiments, the inhibitory activity of the RGD surrogates SF-6,5 and NS-11 on the adhesion of B16 murine melanoma cells to FN was compared to that of the GRGDSP peptide.

In experiment [4] the test system is B16-melanoma cells adhesion to VN. The experiment can be described thus: Inhibition of B16-melanoma cell adhesion to VN. The class given is cell-based, murine. Conditions: surrogates 0.2 mM; for % inhibition of adhesion of B16-melanoma cells to VN: * P<0.05; for % Adhesion of B16-melanoma cells to VN: none 68 ± 5. How it is done:
as §4, §5

The subject of experiment [5] is CD4^+ T cell adhesion to FN. The experiment is described as follows: Inhibition of activated CD4+ T cell adhesion to FN. The format is cell-based, human. Conditions: Table 1B, surrogates 0.2 mM; for % Inhibition of adhesion: CD4^+ T cell to FN; for % Adhesion of activated CD4^+ to FN: none 65. Here is the method: as §1
as §2, with “The tested non-peptidic surrogates, 0.2 mM in PBS, were used to pretreat the T cells for 15 min before seeding the cells *, P<0.05.” left out
In a second series of experiments, FN was used in the adhesion assay carried out with the RGD surrogates NS-8, NS-11 and NS-15 in comparison to RGDS peptide.
In a third series of experiments, FN was used in the adhesion assay with the surrogates SF-6,5 and NS-11 and compared to the peptide GRGDSP.

Experiment [6] has as its target T1, platelet GPIIb-IIIa receptor (Homo sapiens, UniProt P05106+P08514).
T1 construct: Platelet concentrates were prepared from human whole blood; endogenous in cells; host or cells: human platelets in platelet rich plasma
The experiment is described as follows: Inhibition of ADP-induced platelet aggregation (platelet rich plasma). The format is cell-based. Conditions: FIG. 4; fixed sub-saturating 0.5 mM / 10μg/ml; 4 experiments. How it is done: To investigate the inhibitory role of the RGD analogues on adhesion, the platelet GPIIb-IIIa receptor which mediates platelet aggregation upon activation was used as a model.
Platelet concentrates were prepared from human whole blood in 10% adenine-citrate-dextrose in Fenwall bags (Baxter Travenol, Israel) followed by standard AABB protocol. Platelet rich plasma was prepared by centrifugation (2500 rpm for 5 min). Samples of platelets were counted in a Minos AST Cell Counter (Levoiselle, France). Cell aggregation was induced by […] and monitored at […] in a 4-channel Aggregometer (Bio-Data, Hatboro, Pa.). To evaluate the effect of the various RGD peptides and the peptide analogues, the platelet rich plasma was pre-incubated with the various inhibitors for 10 min at 37° C. with 10μsolutions followed by the induction of aggregation.
To examine the specificity of the inhibitory effect of the RGD-analogues on platelet aggregation, the cells were treated with various peptidic (RGD and GRGDSP) and non-peptidic (SF-6,6, SF-6,5 and AC-15) RGD analogues used at a fixed sub-saturating concentration of 0.5 mM.
An in vitro assay as described in Example 17 was carried out with the compound NS-11 to examine its ability to interfere with platelet aggregation, and compared it to the SF-6,5 surrogate.
Platelet rich plasma (PRP) was prepared from acid/citrate/dextrose anti-coagulated fresh human blood by differential centrifugation. Platelet aggregation was induced by […] and monitored at 695 nm by a 4-channel Aggregometer (Bio-Data, PA). To evaluate the effect of the RGDS peptide and the NS-8, NS-11 and NS-15 analogs, the PRP was preincubated with the inhibitors for 10 minutes at 37° C., prior to the induction of aggregation. […] In fact, 50% inhibition of platelet aggregation was achieved using a 30-fold lower concentration of NS-11 than that of RGDS.

T1 sequence (P08514 32-887 limits assumed): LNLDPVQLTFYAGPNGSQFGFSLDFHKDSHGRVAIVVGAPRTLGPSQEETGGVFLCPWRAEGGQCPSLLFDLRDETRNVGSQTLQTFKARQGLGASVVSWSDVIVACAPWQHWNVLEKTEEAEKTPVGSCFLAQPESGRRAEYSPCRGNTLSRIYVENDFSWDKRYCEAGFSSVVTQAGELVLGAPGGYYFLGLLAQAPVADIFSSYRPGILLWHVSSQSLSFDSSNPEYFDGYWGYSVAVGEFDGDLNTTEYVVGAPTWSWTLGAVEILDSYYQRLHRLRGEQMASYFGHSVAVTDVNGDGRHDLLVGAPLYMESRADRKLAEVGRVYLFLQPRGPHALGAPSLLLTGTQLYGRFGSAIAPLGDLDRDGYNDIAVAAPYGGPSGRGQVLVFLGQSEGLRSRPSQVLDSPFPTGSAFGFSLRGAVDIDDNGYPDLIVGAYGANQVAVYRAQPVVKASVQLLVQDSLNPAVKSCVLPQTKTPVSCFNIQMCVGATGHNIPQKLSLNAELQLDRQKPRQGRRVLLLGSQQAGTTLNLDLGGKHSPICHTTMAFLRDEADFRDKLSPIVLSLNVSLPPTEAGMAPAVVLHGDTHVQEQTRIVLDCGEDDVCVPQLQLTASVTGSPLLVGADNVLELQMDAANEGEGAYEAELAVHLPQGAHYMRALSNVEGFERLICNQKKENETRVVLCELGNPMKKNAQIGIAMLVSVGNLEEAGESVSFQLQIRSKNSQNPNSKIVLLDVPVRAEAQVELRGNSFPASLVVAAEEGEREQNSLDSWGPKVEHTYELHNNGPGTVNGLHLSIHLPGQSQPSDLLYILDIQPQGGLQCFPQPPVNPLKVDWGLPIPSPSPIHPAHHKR
T1 sequence (P08514 891-1039 limits assumed): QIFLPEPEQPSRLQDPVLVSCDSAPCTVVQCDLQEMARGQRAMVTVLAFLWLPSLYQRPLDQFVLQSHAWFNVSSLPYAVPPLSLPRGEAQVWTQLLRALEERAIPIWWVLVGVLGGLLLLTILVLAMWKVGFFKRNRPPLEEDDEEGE
T1 sequence (P05106 27-788): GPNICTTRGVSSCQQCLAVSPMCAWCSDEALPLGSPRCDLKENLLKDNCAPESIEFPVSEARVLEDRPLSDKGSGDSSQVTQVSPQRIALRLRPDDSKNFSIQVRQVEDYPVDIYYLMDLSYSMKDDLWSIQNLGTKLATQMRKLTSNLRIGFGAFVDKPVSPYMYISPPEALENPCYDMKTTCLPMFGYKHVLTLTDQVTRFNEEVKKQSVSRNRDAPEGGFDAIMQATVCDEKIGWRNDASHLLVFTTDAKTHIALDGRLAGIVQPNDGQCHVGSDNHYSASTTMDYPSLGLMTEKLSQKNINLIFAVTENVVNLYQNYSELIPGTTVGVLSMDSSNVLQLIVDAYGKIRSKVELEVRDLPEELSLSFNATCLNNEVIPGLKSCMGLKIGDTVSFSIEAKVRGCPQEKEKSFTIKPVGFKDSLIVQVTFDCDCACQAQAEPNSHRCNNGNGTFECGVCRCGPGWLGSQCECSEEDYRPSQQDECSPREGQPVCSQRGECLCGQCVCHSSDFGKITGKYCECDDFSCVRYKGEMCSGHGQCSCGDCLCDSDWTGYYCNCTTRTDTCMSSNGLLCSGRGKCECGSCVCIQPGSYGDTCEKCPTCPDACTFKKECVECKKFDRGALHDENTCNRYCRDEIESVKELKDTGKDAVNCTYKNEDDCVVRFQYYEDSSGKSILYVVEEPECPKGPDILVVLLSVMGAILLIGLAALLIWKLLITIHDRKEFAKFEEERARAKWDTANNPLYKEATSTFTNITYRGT

Turning to GRGESP, in experiment [1], the “% inhibition of adhesion of activated CD4^+ T cell to 120 kD fragment of FN” value (“% inhibition of adhesion … of FN” below) is given as 0% and the “% Adhesion of activated CD4^+ T cell to 120 kD fragment of FN” value (from here on “% Adhesion … of FN”) turned out to be 46 ± 3%. In experiment [2], the “% inhibition of adhesion of activated CD4^+ T cell to LN” value (“% inhibition of adhesion … to LN” for short) was found to be 0% and the “% Adhesion of activated CD4^+ T cell to LN” value (from here on “% Adhesion … to LN”) stood at 52 ± 3%. Besides, in experiment [3], the “% inhibition of adhesion of B16-melanoma cells to FN” value amounted to 0% and the “% Adhesion of B16-melanoma cells to FN” value was 73 ± 5%. Further, in experiment [4], the “% inhibition of adhesion of B16-melanoma cells to VN” value is listed as 0% and the “% Adhesion of B16-melanoma cells to VN” value was determined as 66 ± 8%.

`N=C(N)NCCCCC(=O)NCC(=O)NCCC(=O)O` [AC-4, 4,7-diaza-5,8-dioxo-12-quanidino-dodecanoic acid]: in experiment [1], the “% inhibition of adhesion … of FN” value is 47%; the “% Adhesion … of FN” value is 16 ± 3%; the “T cell adhesion to FN, in words” value is listed as “inhibited T cell adhesion to FN”. Further, in experiment [2], the “% inhibition of adhesion … to LN” value turned out to be 0% and the “% Adhesion … to LN” value came out at 57 ± 4%.

In the case of `NCCCCCC(=O)NCCCCC(=O)O` [SFN-70, reference compound], in experiment [1], the “% inhibition of adhesion … of FN” value is given as 0%; the “% Adhesion … of FN” value turned out to be 42 ± 5%; the “T cell adhesion to FN, in words” value was “did not inhibit T cell adhesion to both FN and LN”. The “T cell adhesion to LN, in words” value in experiment [2] (0.2 mM) is “did not inhibit T cell adhesion to both FN and LN”. In addition, in experiment [2], the “% inhibition of adhesion … to LN” value was found to be 0% and the “% Adhesion … to LN” value is on record as 49 ± 6%.

Turning to RGDS [reference compound], in experiment [5], the “% Inhibition of adhesion” value is 67% and the “% Adhesion of activated CD4^+ to FN” value is listed as 22%.

For the compound `N=C(N)NCCCCC(=O)N1CCCCC1C(=O)NCCC(=O)O` (stereo not shown) [NS-8], in experiment [5], the “% Inhibition of adhesion” value is 31% and the “% Adhesion of activated CD4^+ to FN” value is 45%.

For the compound Arg-Gly-Asp [RGD], in experiment [1], the “% inhibition of adhesion … of FN” value was 12%; the “% Adhesion … of FN” value is on record as 38 ± 3%; the “T cell adhesion to FN, in words” value is reported as “specifically inhibited”. In experiment [2], the “% inhibition of adhesion … to LN” value was 0% and the “% Adhesion … to LN” value was found to be 57 ± 3%. Further, in experiment [3], the “% inhibition of adhesion of B16-melanoma cells to FN” value amounted to 7% and the “% Adhesion of B16-melanoma cells to FN” value amounted to 70 ± 3%. In experiment [4], the “% inhibition of adhesion of B16-melanoma cells to VN” value was 0% and the “% Adhesion of B16-melanoma cells to VN” value worked out at 66 ± 6%. For the same compound, the “Inhibition of platelet aggregation at fixed concentration, in words” value in experiment [6] is “not an effective inhibitor”.

`N=C(N)NCCCCC(=O)NCCCCCC(=O)O` [AC-15, 7-aza-8-oxo-12-quanidino-dodecanoic acid]: in experiment [1], the “% inhibition of adhesion … of FN” value is 19%; the “% Adhesion … of FN” value is listed as 35 ± 5%; the “T cell adhesion to FN, in words” value is “inhibited T cell adhesion to FN”. Also, in experiment [2], the “% inhibition of adhesion … to LN” value was 0% and the “% Adhesion … to LN” value is listed as 52 ± 4%. The “Inhibition of platelet aggregation at fixed concentration, in words” value in experiment [6] is recorded as “even higher than that of the GRGDSPK peptide”.

For the compound `N=C(N)NCCC(=O)Nc1cccc(C(=O)NCCC(=O)O)c1` [NS-15], in experiment [5], the “% Inhibition of adhesion” value was determined as 59% and the “% Adhesion of activated CD4^+ to FN” value worked out at 27%.

Turning to `N=C(N)NCCCC(=O)NCCC(=O)NCCC(=O)O` [AC-14, 4,8-diaza-5,9-dioxo-12-quanidino-dodecanoic acid], in experiment [1], the “% inhibition of adhesion … of FN” value amounted to 42%; the “% Adhesion … of FN” value is given as 25 ± 4%; the “T cell adhesion to FN, in words” value is on record as “inhibited T cell adhesion to FN”. Also, in experiment [2], the “% inhibition of adhesion … to LN” value worked out at 0% and the “% Adhesion … to LN” value is reported as 55 ± 6%.
